According to PubChem BioAssay AID256 (DTP/NCI, 2004):
Toxic doses and inconclusive results are not listed. The calls were made as follows: active = survival T/C of 150% or more; inactive = T/C below 125% in these data.

Test system: CD2F1 mice, L1210 leukemia ip, survival T/C
Assay: NCI In Vivo Anticancer Drug Screen. Data for tumor model L1210 Leukemia (intraperitoneal) in CD2F1 (CDF1) mice
Conditions: higher = longer survival
Procedure, shortened: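 Compound-dosed mice with transplantable tumor versus matched vehicle controls; endpoint ratio T/C reported.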

[1] = endpoint: mean survival time, dose: 12.5 mg/kg/injection, schedule: Q01DX005 (ip), vehicle: water
[2] = endpoint: mean survival time, dose: 25.0 mg/kg/injection, schedule: Q01DX005 (ip), vehicle: water
[3] = endpoint: mean survival time, dose: 50.0 mg/kg/injection, schedule: Q01DX005 (ip), vehicle: water
[4] = endpoint: mean survival time, dose: 100.0 mg/kg/injection, schedule: Q01DX005 (ip), vehicle: water
[5] = endpoint: mean survival time, dose: 200.0 mg/kg/injection, schedule: Q01DX005 (ip), vehicle: water
[6] = endpoint: mean survival time, dose: 100.0 mg/kg/injection, schedule: Q04DX003 (ip), vehicle: saline with Tween-80
[7] = endpoint: mean survival time, dose: 200.0 mg/kg/injection, schedule: Q04DX003 (ip), vehicle: saline with Tween-80
[8] = endpoint: mean survival time, dose: 400.0 mg/kg/injection, schedule: Q04DX003 (ip), vehicle: saline with Tween-80

Measured: T/C

N#CCCOP(=O)(N1CC1)N1CC1
inactive: endpoint: mean survival time, dose: 3.9 mg/kg/injection, schedule: Q01DX001 (ip), vehicle: Klucel (hydroxypropylcellulose) (HPC) 100 % of control | endpoint: mean survival time, dose: 4.0 mg/kg/injection, schedule: Q01DX009 (ip), vehicle: water 104 % of control | endpoint: mean survival time, dose: 7.8 mg/kg/injection, schedule: Q01DX001 (ip), vehicle: Klucel (hydroxypropylcellulose) (HPC) 100 % of control | endpoint: mean survival time, dose: 8.0 mg/kg/injection, schedule: Q01DX009 (ip), vehicle: water 114 % of control | endpoint: mean survival time, dose: 15.6 mg/kg/injection, schedule: Q01DX001 (ip), vehicle: Klucel (hydroxypropylcellulose) (HPC) 109 % of control | endpoint: mean survival time, dose: 31.2 mg/kg/injection, schedule: Q01DX001 (ip), vehicle: Klucel (hydroxypropylcellulose) (HPC) 122 % of control | endpoint: mean survival time, dose: 62.5 mg/kg/injection, schedule: Q01DX001 (ip), vehicle: Klucel (hydroxypropylcellulose) (HPC) 121 % of control | endpoint: mean survival time, dose: 64.0 mg/kg/injection, schedule: Q01DX009 (ip), vehicle: water 90 % of control

CCOP(=O)(OCC)c1ncn(C2OC(CO)C3OC(C)(C)OC32)c1N (stereo not given)
inactive: [1] 92 % of control | [2] 100 % of control | [3] 96 % of control | [4] 92 % of control | [5] 92 % of control

NC(=S)NNC(N)=S
inactive: endpoint: mean survival time, dose: 100.0 mg/kg/injection, schedule: Q01DX009 (ip), vehicle: saline with Tween-80 101 % of control | [6] 104 % of control | endpoint: mean survival time, dose: 200.0 mg/kg/injection, schedule: Q01DX009 (ip), vehicle: saline with Tween-80 95 % of control | [7] 102 % of control | endpoint: mean survival time, dose: 400.0 mg/kg/injection, schedule: Q01DX009 (ip), vehicle: saline with Tween-80 110 % of control | [8] 107 % of control

[Cl][Pt+2][Cl].[NH-]C(C(=O)O)C([NH-])C(=O)O (stereo not given)
inactive: endpoint: mean survival time, dose: 50.0 mg/kg/injection, schedule: Q04DX003 (ip), vehicle: saline 100 % of control | endpoint: mean survival time, dose: 100.0 mg/kg/injection, schedule: Q04DX003 (ip), vehicle: saline 106 % of control | endpoint: mean survival time, dose: 200.0 mg/kg/injection, schedule: Q04DX003 (ip), vehicle: saline 104 % of control

COC(=O)c1cc(C2OC3OC(C)(C)OC3C2OCc2ccccc2)nn1-c1ccc([N+](=O)[O-])cc1 (stereo not given)
inactive: endpoint: median survival time, dose: 11.5 mg/kg/injection, schedule: Q01DX005 (ip), vehicle: other 101 % of control | endpoint: median survival time, dose: 23.0 mg/kg/injection, schedule: Q01DX005 (ip), vehicle: other 100 % of control | endpoint: median survival time, dose: 46.0 mg/kg/injection, schedule: Q01DX005 (ip), vehicle: other 100 % of control | endpoint: median survival time, dose: 92.0 mg/kg/injection, schedule: Q01DX005 (ip), vehicle: other 100 % of control

COC(=O)C1(C(=O)OC)CC1C(=O)c1ccccc1 (stereo not given)
inactive: [6] 98 % of control | [7] 98 % of control | [8] 95 % of control

C(/C=C\c1ccccc1)=C(/C=C/c1ccccc1)/C=C/c1ccccc1
inactive: endpoint: mean survival time, dose: 200.0 mg/kg/injection, schedule: Q01DX001 (ip), vehicle: saline with Tween-80 89 % of control | endpoint: mean survival time, dose: 400.0 mg/kg/injection, schedule: Q01DX001 (ip), vehicle: saline with Tween-80 89 % of control

Cc1cn(C2CC3OP(N(C)C)OCC3O2)c(=O)[nH]c1=O (stereo not given)
inactive: [1] 100 % of control | [2] 101 % of control | [3] 98 % of control | [4] 105 % of control | [5] 101 % of control

O=C(O)CC(O)(CC(=O)O)C(=O)O
inactive: endpoint: mean survival time, dose: 60.0 mg/kg/injection, schedule: Q01DX001 (ip), vehicle: saline 106 % of control | endpoint: mean survival time, dose: 200.0 mg/kg/injection, schedule: Q01DX001 (ip), vehicle: saline 96 % of control | endpoint: mean survival time, dose: 400.0 mg/kg/injection, schedule: Q01DX001 (ip), vehicle: saline 94 % of control | endpoint: mean survival time, dose: 800.0 mg/kg/injection, schedule: Q01DX001 (ip), vehicle: saline 100 % of control
